From patent US11000512B2, “Use of DDX3 inhibitors as antiproliferative agents” (AZIENDA OSPEDALIERA UNIVERSITARIA SENESE, priority 2016, dated 2021)

Experiments:
[1] = test system: Human Glioblastoma cell line (U87); test: Cytotoxicity test / growth inhibition, U87; assay type: cell-based; details: U87, 48 hours, cell counting, mM
Procedure: (§1) Cell lines were seeded at appropriate densities in 2 mL growth medium in 6-wells culture plates 24 hours before the treatment with the inhibitor compounds. After 24 h the culture medium was removed and fresh medium containing increasing concentrations of chemical compounds was added to cells. The fixed final concentrations were: 0.1 μM, 1 μM, 10 μM, 100 μM. DMSO was the vehicle used for dilution of the compounds and its final concentration on cells was less than 0.2%. Medium-only containing wells were included as controls. Cells were incubated 48 hours with drugs and, then, cell viability was evaluated.
(§2) Cells were detached from each well of the 6-wells plates with 300 μL of Trypsin and suspended in culture medium to a final volume of 1 mL. Cell viability was then assessed through cell counting. Cells were diluted in 1:50 ratio of an isotonic buffered diluent, Isoton (Backman Coulter), following the manufacturer's instructions, and counted using an automated cell counter (Z2 series Coulter Counter, Beckman Coulter). Each cell count was performed in three replicates. The values corresponding to the relative survival of cells in presence of each chemical compound at single concentrations were normalized to the untreated controls. […]

[2] = test system: Human breast adenocarcinoma cell line (MDA-MB-231); test: Cytotoxicity test / growth inhibition, MDA-MB-231; assay type: cell-based; details: MDA-MB-231, 48 hours, cell counting
Procedure: (§3) Cells were purchased from American Type Culture Collection (ATCC, Manassas, Va., USA). The LNCaP (ATCC® CRL-1740™), A549 (ATCC® CCL-185™), MDA-MB-231 (ATCC® CRM-HTB-26™), 22Rv1 (ATCC® CRL-2505™), HCT-116 (ATCC® CCL-247™) and PC3 (ATCC® CRL-1435™) cells were maintained in Roswell Park Memorial Institute 1640 medium (RPMI; Euroclone, ECB9006L) supplemented with 10% fetal bovine serum (Euroclone; ECS0180L), 2 mM L-glutamine, 100 units/mL penicillin and […] streptomycin at 37° C. in an atmosphere of 5% CO2/air. DU145 (ATCC® HTB-81™), and DAOY (ATCC® HTB-186™) cells were maintained in Eagle's minimal essential medium (EMEM; Euro-clone, ECM0445L) supplemented with 10% fetal bovine serum (Euroclone; ECS0180L), 2 mM L-glutamine, 100 units/ml penicillin and […] streptomycin at 37° C. in an atmosphere of 5% CO2/air. SH-SY5Y (ATCC® CRL-2266™), DBRTG (ATCC® CRL-2020™), HeLa (ATCC® CCL-2™), HN6 cells (kindly provided by Dr Silvio Gutkind, UCSD Medical Center, Moores Cancer Center USA, Chen J. J et al, Oncotarget 2013, 4, 206-217)), U2OS (ATCC® HTB-96™), RD18 cells (kindly provided by Dr P. Boccuni Memorial Sloan-Kettering Cancer Center, New York, USA Vella S. et al. Clin Epigenetics. 2015 6; 7-82), cells were maintained in Dulbecco's modified Eagle's medium (DMEM; Euroclone, ECB7501L) supplemented with 10% fetal bovine serum (Euroclone; ECS0180L), 2 mM L-glutamine, 100 units/ml penicillin and 100 mg/mL streptomycin at 37° C. in an atmosphere of 5% CO2/air.
as §1
(§4) Cells were detached from each well of the 6-wells plates with 300 μL of Trypsin and suspended in culture medium to a final volume of 1 mL. Cell viability was then assessed through cell counting. Cells were diluted in 1:50 ratio of an isotonic buffered diluent, Isoton (Backman Coulter), following the manufacturer's instructions, and counted using an automated cell counter (Z2 series Coulter Counter, Beckman Coulter). Each cell count was performed in three replicates. The values corresponding to the relative survival of cells in presence of each chemical compound at single concentrations were normalized to the untreated controls. Then, the half maximal inhibitory concentration (IC50) value, which represent the drug concentration that is required to induce a 50% growth inhibition in vitro, was calculated with GraphPad Prism 6.0 software using the best fitting sigmoid curve.

[3] = Microsomal Stability Assay (HLM); assay type: in vitro ADME; details: human liver microsomes, 37° C., 60 min, NADPH-generating system; percentage of not metabolized compound
From the text: (§5) For the quantification was used an LC-MS system consisted of a Varian apparatus (Varian Inc) including a vacuum solvent degassing unit, two pumps (212-LC), a Triple Quadrupole MSD (Mod. 320-LC) mass spectrometer with ES interface and Varian MS Workstation System Control Vers. 6.9 software. Chromatographic separation was obtained using a Pursuit C18 column (50×2.0 mm) (Varian) with 3 μm particle size and gradient elution: eluent A being ACN and eluent B consisting of water. […] The flow rate was 0.2 mL min^−1 and injection volume was 5 μL. The instrument operated in positive mode and parameters were: detector 1850 V, drying gas pressure 25.0 psi, desolvation temperature 300.0° C., nebulizing gas 40.0 psi, needle 5000 V and shield 600 V. Nitrogen was used as nebulizer gas and drying gas. Collision induced dissociation was performed using Argon as the collision gas at a pressure of 1.8 mTorr in the collision cell. Microsomal Stability Assay. […] The reaction was stopped by cooling on ice and adding 1.0 mL of acetonitrile. The reaction mixtures were then centrifuged, and the parent drug and metabolites were subsequently determined by LC-UV-MS. Chromatographic analysis was performed with an Agilent 1100 LC/MSD VL system (G1946C) (Agilent Technologies, Palo Alto, Calif.) constituted by a vacuum solvent degassing unit, a binary high-pressure gradient pump, an 1100 series UV detector, and an 1100 MSD model VL benchtop mass spectrometer.
Chromatographic separation was obtained using a Varian Polaris C18-A column (150-4.6 mm, 5 μm particle size) and gradient elution: eluent A being ACN and eluent B consisting of water. […] The flow rate was 0.8 mL min^−1 and injection volume was 20 μL.
The Agilent 1100 series mass spectra detection (MSD) single-quadrupole instrument was equipped with the orthogonal spray API-ES (Agilent Technologies, Palo Alto, Calif.). Nitrogen was used as nebulizing and drying gas. The pressure of the nebulizing gas, the flow of the drying gas, the capillary voltage, the fragmentor voltage, and the vaporization temperature were set at 40 psi, 9 L/min, 3000 V, 70 V, and 350° C., respectively. UV detection was monitored at 280 nm. The LC-ESI-MS determination was performed by operating the MSD in the positive ion mode. Spectra were acquired over the scan range m/z 100-1500 using a step size of 0.1 u. The percentage of not metabolized compound was calculated by comparison with reference solutions.

[4] = Parallel Artificial Membrane Permeability Assay (PAMPA), GI; assay type: in vitro ADME; details: GI (intestinal) PAMPA, value in brackets
Procedure: Parallel Artificial Membrane Permeability Assay (PAMPA). Donor solution (0.5 mM) was prepared by diluting 1 mM dimethylsulfoxide (DMSO) compound stock solution using phosphate buffer (pH 7.4, 0.025 M). Filters were coated with 5 μL of a 1% (w/v) dodecane solution of phosphatidylcholine prepared from CHCl3 solution 10% w/v, for intestinal permeability. Donor solution (150 μL) was added to each well of the filter plate. To each well of the acceptor plate were added 300 μL of solution (50% DMSO in phosphate buffer). All compounds were tested in three different plates on different days. The sandwich was incubated for 5 h at room temperature under gentle shaking. After the incubation time, the plates were separated, and samples were taken from both receiver and donor sides and analyzed using LC with UV detection at 280 nm.
LC analysis were performed with a Varian Prostar HPLC system (Varian Analytical Instruments, USA) equipped with a binary pump with a manual injection valve and model Prostar 325 UV-VIS Detector. Chromatographic separations were conducted using a Polaris C18-A column (150-4.6 mm, 5 μm particle size) at a flow rate of 0.8 mL min^−1 with a mobile phase composed of 60% ACN/40% H2O.
Permeability (Papp) for PAMPA was calculated according to the following equation, obtained from Wohnsland and Faller and Sugano et al. equation with some modification in order to obtain permeability values in cm s^−1,
where VA is the volume in the acceptor well, VD is the volume in the donor well (cm^3), A is the “effective area” of the membrane (cm^2), t is the incubation time (s) and r the ratio between drug concentration in the acceptor and equilibrium concentration of the drug in the total volume (VD+VA). Drug concentration is estimated by using the peak area integration.
Membrane retentions (%) were calculated according to the following equation: […]
where r is the ratio between drug concentration in the acceptor and equilibrium concentration, D, A, and Eq represented drug concentration in the donor, acceptor and equilibrium solution, respectively.

[5] = test system: Human Neuroblastoma cell line (SH-SY5Y); test: Cytotoxicity test / growth inhibition, SH-SY5Y; assay type: cell-based; details: 48 hours, cell counting
Procedure: Cells were purchased from American Type Culture Collection (ATCC, Manassas, Va., USA). The LNCaP (ATCC® CRL-1740™), A549 (ATCC® CCL-185™), MDA-MB-231 (ATCC® CRM-HTB-26™), 22Rv1 (ATCC® CRL-2505™), HCT-116 (ATCC® CCL-247™) and PC3 (ATCC® CRL-1435™) cells were maintained in Roswell Park Memorial Institute 1640 medium (RPMI; Euroclone, ECB9006L) supplemented with 10% fetal bovine serum (Euroclone; ECS0180L), 2 mM L-glutamine, 100 units/mL penicillin and […] streptomycin at 37° C. in an atmosphere of 5% CO2/air. […]
(§6) Cell lines were seeded at appropriate densities in 2 mL growth medium in 6-wells culture plates 24 hours before the treatment with the inhibitor compounds. […] Cells were incubated 48 hours with drugs and, then, cell viability was evaluated.
(§7) Cells were detached from each well of the 6-wells plates with 300 μL of Trypsin and suspended in culture medium to a final volume of 1 mL. Cell viability was then assessed through cell counting. Cells were diluted in 1:50 ratio of an isotonic buffered diluent, Isoton (Backman Coulter), following the manufacturer's instructions, and counted using an automated cell counter (Z2 series Coulter Counter, Beckman Coulter). […]

[6] = test system: Human cervical carcinoma cell line (HeLa); test: Cytotoxicity test / growth inhibition, HeLa; assay type: cell-based; details: 48 hours, cell counting, mM
Procedure: as §3, with “2015 6; 7-82), cells were maintained in Dulbecco's modified Eagle's medium (DMEM; Euroclone, ECB7501L) supplemented with 10% fetal bovine serum (Euroclone; ECS0180L), 2 mM L-glutamine, 100 units/ml penicillin and 100 mg/mL streptomycin at 37° C. in an atmosphere of 5% CO2/air.” left out
as §6, §7

Water Solubility Assay = assay type: physicochemical
Procedure: Water Solubility Assay. Each solid compound (1 mg) was added to 1 mL of water. The samples were shaked in a shaker bath at room temperature for 24-36 h. The suspensions were filtered through a 0.45 μm nylon filter (Acrodisc), and the solubilized compound determined by LC-MS-MS assay. For each compound the determination was performed in triplicate.
as §5

[7] = test system: Human Prostate cell line derived from brain metastasis (DU-145); test: Cytotoxicity test / growth inhibition, DU-145; assay type: cell-based; details: DU-145, 48 hours, cell counting
Procedure: as §3, §1, §2

[8] = test system: Human Prostate cancer cell line (PC3); test: Cytotoxicity test / growth inhibition, PC3; assay type: cell-based; details: PC3, 48 hours, cell counting
Procedure: as §3, with “2015 6; 7-82), cells were maintained in Dulbecco's modified Eagle's medium (DMEM; Euroclone, ECB7501L) supplemented with 10% fetal bovine serum (Euroclone; ECS0180L), 2 mM L-glutamine, 100 units/ml penicillin and 100 mg/mL streptomycin at 37° C. in an atmosphere of 5% CO2/air.” left out
as §6, §7

[9] = test system: Human head and neck squamous carcinoma cell line (HN6); test: Cytotoxicity test / growth inhibition, HN6; assay type: cell-based; details: HN6, 48 hours, cell counting
Procedure: as §3, §1, §4

[10] = test system: Human adenocarcinomic alveolar basal epithelial cell line (A549); test: Cytotoxicity test / growth inhibition, A549; assay type: cell-based; details: A549, 48 hours, cell counting
Procedure: as §3, §1, §4

[11] = test system: Human colorectal carcinoma cell line (HCT116); test: Cytotoxicity test / growth inhibition, HCT116; assay type: cell-based; details: HCT-116, HCT116, 48 hours, cell counting
Procedure: as §3, with “2015 6; 7-82), cells were maintained in Dulbecco's modified Eagle's medium (DMEM; Euroclone, ECB7501L) supplemented with 10% fetal bovine serum (Euroclone; ECS0180L), 2 mM L-glutamine, 100 units/ml penicillin and 100 mg/mL streptomycin at 37° C. in an atmosphere of 5% CO2/air.” left out
as §6, §7

[12] = test system: Human osteosarcoma cell line (U2OS); test: Cytotoxicity test / growth inhibition, U2OS; assay type: cell-based; details: 48 hours, cell counting
Procedure: as §3, §1, §4

CCCCc1cn(-c2ccc(NC(=O)Nc3ccccc3C)cc2)nn1 [Compound 20a, 1-(4-(4-butyl-1H-1,2,3-triazol-1-yl)phenyl)-3-o-tolylurea]
IC50 [1]: 0.037 mM | IC50 [2]: 18.7 µM | Sability % [3]: 99% | PAMPA GI (RM %) membrane retention [4]: 19.1% | IC50 [5]: 149 µM | IC50 [6]: 0.054 mM

CCCCn1nnc(-c2ccc(NC(=O)Nc3ccccc3C)cc2)n1 [Compound 49, 1-(4-(2-butyl-2H-tetrazol-5-yl)phenyl)-3-(o-tolyl)urea]
LogS (Water Solubility Assay; from aqueous solubility): <−8.5 | Aq. Solub. (Water Solubility Assay; water, room temperature, 24-36 h): <0.001 µg/mL | Sability % [3]: 95.6% | PAMPA GI (RM %) membrane retention [4]: 24.8%

CC(C)CCc1cn(-c2ccc(NC(=O)Nc3cccc4cnccc34)cc2)nn1 [Compound 55f, 1-(4-(4-isopentyl-1H-1,2,3-triazol-1-yl)phenyl)-3-(isoquinolin-5-yl)urea]
IC50 [7]: 0.6 µM | IC50 [8]: 32.4 µM | IC50 [9]: 6.1 µM

CCCCc1nc(-c2ccc(NC(=O)Nc3ccccc3C(F)(F)F)cc2)no1 [Compound 106, 1-(4-(5-butyl-1,2,4-oxadiazol-3-yl)phenyl)-3-(2-(trifluoromethyl)phenyl)urea]
IC50 [10]: 32.6 µM | IC50 [9]: 18.2 µM | IC50 [11]: 36.8 µM | IC50 [12]: 35.4 µM
